Reference: patent publication US6881409B2, “Compositions and methods for promoting nerve regeneration” (Oregon Health and Science University, priority 1997, dated 2005)

Tested on: SH-SY5Y human neuroblastoma cells
Assay: Neurite outgrowth (neuritic process length) of NGF-differentiated SH-SY5Y cells
Assay type: cell-based
Description: Cell cultures. SH-SY5Y human neuroblastoma cells were maintained in DMEM medium (GIBCO) supplemented with 10% fetal calf serum (SIGMA), 50 IU/mL penicillin, and […] streptomycin (GIBCO) at 37° C. in 7% CO^2. Cells were plated in six-well plates at 1×10^6 cells/well and treated with […] aphidicolin (SIGMA). At five days, cells were washed, treated with nerve growth factor (NGF) (Boehringer Mannheim, Indianapolis, Ind.) at 10 ng/mL (to induce process outgrowth) in the presence or absence of FK506 (1 and 10 nM) (Calbiochem-Novabiochem Int'l., La Jolla, Calif.) and/or geldanamycin (0.1, 1, and 10 nM) (Calbiochem-Novabiochem, La Jolla, Calif.). Media was changed at 96 hours and replaced with fresh media with the compounds (NGF plus FK506 and/or geldanamycin) for an additional 72 hours (total time, 168 hours). The top 50% of axonal lengths were selected for statistical analysis. All experiments were run in duplicate wells and repeated at least twice for reproducibility.
Light morphometry of neurite lengths. For analysis of process length, cells 20 fields per well) were randomly photographed at 72 and 168 hours. Neurite lengths were measured on photographic prints using a Houston Instrument HI-PAD digitizing tablet connected to an IBM XT computer with appropriate software (Bioquant IV, R&M Biometrics, Nashville, Tenn.); only those processes greater than two times the cell body length were measured. Data from identically treated wells were not different and were therefore combined. […] Histograms were compared using a Mann-Whitney U test, which makes no assumptions about the shape of the distribution.
Preparation of FK506 and geldanamycin. FK506 (mol. wt. 822) and geldanamycin (mol. wt. 561) were dissolved in DMEM medium.
In a first set of experiments, SH-SY5Y neuroblastoma cells were plated in 6-well plates with DMEM plus 15% FCS and differentiated with NGF (10 ng/ml). The effects of various concentrations of geldanamycin and FK506 on neurite growth, alone and in combination, were tested.

COC1=C2C[C@@H](C)C[C@H](OC)[C@H](O)[C@@H](C)/C=C(\C)[C@H](OC(N)=O)[C@@H](OC)/C=C\C=C(/C)C(=O)NC(=CC1=O)C2=O [Geldanamycin, geldanamycin]
Mean Length of Top 50% of Neuritic Processes (Table 1, geldanamycin 1 nM + NGF 10 ng/mL, 168 hours): 64 µm | Mean Length of Top 50% of Neuritic Processes (Table 1, geldanamycin 10 nM + NGF 10 ng/mL, 168 hours): 54.8 µm | Mean Length of Top 50% of Neuritic Processes (Table 2, geldanamycin 0.1 nM + NGF 10 ng/mL, 168 hours): 98.1 µm | effect on length of the processes (first set, geldanamycin 10 nM in the presence of NGF): no effect

estrogen
effect on neurite outgrowth with FK506 (10 nM with FK506 10 nM): additive effect | neurite outgrowth (10 nM, without NGF): increased neurite outgrowth

C=CC[C@@H]1/C=C(\C)C[C@H](C)C[C@H](OC)[C@H]2O[C@@](O)(C(=O)C(=O)N3CCCC[C@H]3C(=O)O[C@H](/C(C)=C/[C@@H]3CC[C@@H](O)[C@H](OC)C3)[C@H](C)[C@@H](O)CC1=O)[C@H](C)C[C@@H]2OC [FK506]
Mean Length of Top 50% of Neuritic Processes (Table 1, FK506 10 nM + NGF 10 ng/mL, 168 hours): 77.8 µm | Mean Length of Top 50% of Neuritic Processes (Table 2, FK506 1 nM + NGF 10 ng/mL, 168 hours): 89.9 µm | Mean Length of Top 50% of Neuritic Processes (Table 2, FK506 10 nM + NGF 10 ng/mL, 168 hours): 82.7 µm

B1: NGF: nerve growth factor (Boehringer Mannheim), used to induce process outgrowth (protein, UniProt P01139 122-241, looked up)
Beta-nerve growth factor: SSTHPVFHMGEFSVCDSVSVWVGDKTTATDIKGKEVTVLAEVNINNSVFRQYFFETKCRASNPVESGCRGIDSKHWNSYCTTTHTFVKALTTDEKQAAWRFIRIDTACVCVLSRKATRRG
Mean Length of Top 50% of Neuritic Processes (Table 1 (first set), NGF 10 ng/mL only, 168 hours after treatment): 54 µm | Mean Length of Top 50% of Neuritic Processes (Table 2 (second set), NGF 10 ng/mL only, 168 hours): 70.4 µm | mean length of the processes compared to untreated cells (first set, NGF 10 ng/mL, 168 hours): more than doubled | mean neuritic lengths compared to untreated control cells (second set, NGF-treated cells): more than double
